Data taken from patent US10513529B2, “1,2,4-triazolo-[3,4-b]-1,3,4-thiadiazole derivatives” (GALENICA S.A., priority 2016, dated 2019).

Tests used:
[1] = test system: A-549 human lung carcinoma cell line; experiment: MTT cytostatic-cytotoxic activity, A-549; assay type: cell-based; details: A-549, 48 h treatment
[2] = test system: MCF-7 human breast cancer cell line; experiment: MTT cytostatic-cytotoxic activity, MCF-7; assay type: cell-based; details: MCF-7, 48 h treatment
[3] = test system: UWB1.289 + BRCA1 human ovarian cancer cell line; experiment: MTT cytostatic-cytotoxic activity, UWB1.289+BRCA1; assay type: cell-based; details: UWB1.289+BRCA1, 48 h treatment
Method: Human ovarian adenocarcinoma cells, derived from UBWB1,289, in which the presence of the BRCA1 gene has been restored. […] They are not susceptible to ionizing radiation and radioimmune chemical agents (e.g., alkylating agents). Also, UWB1.289 cells have mutated the p53 tumor suppressor gene, and are positive for the expression of cytokeratin 7 (CK-7), calretinin and Wilms' tumor protein (WT).
(§1) All cancer cell lines are stored in a liquid nitrogen tank in 2.5 ml cryovials (Corning-Costar, Cambridge, Mass.). DMSO (dimethylsulfoxide) act as a cryoprotectant and is added to prevent the formation of ice crystals which may lyse the cells. The Cells were grown as monolayer cultures in T-75 flasks (Corning-Costar, Cambridge, Mass.) and maintained at 37° C. in 5% CO2 incubator & 100% relative humidity. The cultures medium used are McCoy's 5a Medium, supplemented with 10% fetal bovine serum (FBS, Gibco) and 1% antibiotics (100 IU/ml penicillin/100 µg/ml streptomycin), sterilized by filtration (Corning-Costar filter, diameter 0.2 μm, RPMI-1640 and 50% RPMI-1640 (Catalog No 30-2001) plus 50% Mammary Epithelial Growth Medium (MEGM), supplemented with 10% fetal bovine serum (FBS, Gibco) and 1% antibiotics (100 IU/ml penicillin/100 μg/ml streptomycin). The passage is performed every 3-4 to days as follows: Cells are washed with sterile PBS (Phosphate buffered saline): 8 g/l NaCl, 0,2 g/l KCl, 1,15 g/l Na2HPO4καl 0,2 g/l KH2PO4. pH:7,4), add 2-3 ml 0.05% trypsin (Gibco 1:250) and 0.02% EDTA to cover the monolayer and incubate the flask at 3TC for 5-10 minutes. Trypsin-EDTA, is used mainly to detach the cells from the flask and prepare a single cell suspension. Finally, the number of cells can be determined by direct counting using a Neubauer chamber and cell viability is determined by staining the cells with trypan blue.
(§2) In the experimental study the in vitro effect of the compound type (I) was evaluated against ovarian cancer cell lines UWB1.289, UWB1.289+BRCA1 Kai SKOV-3.The cells were plated in 96-well plate (MTP) at a density of 1×10^4cells/m1 per well and maintained for 72 h at 3TC in a 5% CO2 incubator and grown as monolayers. The selection of the initial number of cells was made according to the rate of proliferation of the cell line, in order the cells throughout the experiment are in an exponential (log) growth phase. After 24 hours, cells were treated with 1-100 μmol/l of the tested compounds for 48 h. Experiments were carried out using triplicate wells. The viability of cultured cells was estimated by an (3-(4,5-imethylthiazol-2-yl)-2,5-diphenyltetrazolium bromide (MTT) metabolic assay as described previously (Finlay G J, Wilson W R and Baguley B C: Comparison of in vitro activity of cytotoxic drugs towards human carcinoma and leukaemia cell lines. Eur J Cancer Clin Oncol 22: 655-662, 1986; Alley M C, Scudiero D A, Monks A, Hursey M L, Czerwinski M J, Fine D L, et al. Feasibility of drug screening with panels of human tumor cell lines using a microculture tetrazolium assay. Cancer Res 1988; 48:589-601). MTT (Sigma, St Louis, Mo., USA) was dissolved in PBS in a concentration of 5 mg/ml, filter sterilized, and stored at 4° C. MTT (50 μl of stock solution) was added to each culture and incubated for 3 h at 3TC to allow metabolization. Formazan crystals were solubilized by DMSO (100 μl). Absorbance of the converted dye was measured at a wavelength of 540nm on ELISA reader (BioTek, Winooski, Vt., USA).
(§3) GI50: The mean concentration that causes 50% inhibition of cell growth (Growth Inhibition 50%). The calculation of the value is based on the formula: (Tt72x)−(Ct24)/(Ct72)-(Ct24)×100=50
(§4) TGI: The mean concentration that causes 100% inhibition of cell growth (Total Growth Inhibition). The value is calculated according to the formula: (Tt72x)−(Ct24)/(Ct72)−(Ct24)×100=0
(§5) IC50: The mean concentration that kills 50% of the cells (Inhibition Concentration 50%). The value is calculated according to the formula: (Tt72x)−(Ct24)/(Ct24)×100=[…]

[4] = test system: MOLT-4 human acute T-leukemia cell line; experiment: MTT cytostatic-cytotoxic activity, MOLT-4; assay type: cell-based; details: MOLT-4, 48 h treatment
[5] = test system: T-47D human breast cancer cell line; experiment: MTT cytostatic-cytotoxic activity, T-47D; assay type: cell-based; details: 48 h treatment
[6] = test system: SKOV-3 human ovarian cancer cell line; experiment: MTT cytostatic-cytotoxic activity, SKOV-3; assay type: cell-based; details: SKOV-3, 48 h treatment
Method: (§6) SKOV-3 (SKOV-3) (ATCC HTB 77) and OVCAR-3 (ATCC® HTB-161™)
(§7) Human ovarian adenocarcinoma cells, which are grown easily in monolayer culture with epithelial-like morphology. SKOV-3 are resistant to tumor necrosis factor (TNF) and to other cytotoxic drugs such as cisplatin, and adriamycin, while OVCAR-3 are resistant to adriamycin, cisplatin and melphalan. These cell lines express androgens, estrogens and progesterone receptors. When SKOV-3 or OVCAR-3 cells are subcutaneously implanted in nude mice, SCID mice, a moderately differentiated tumor develops, and the resulting model resembles primary ovarian adenocarcinoma in humans.
as §1, §2, §3
(§8) TGI: The mean concentration that causes 100% inhibition of cell growth (Total Growth Inhibition). […]

[7] = test system: OVCAR-3 human ovarian cancer cell line; experiment: MTT cytostatic-cytotoxic activity, OVCAR-3; assay type: cell-based; details: OVCAR-3, 48 h treatment
Method: as §6, §7, §1, §2, §3, §8

[8] = test system: PC-3 human hormone-resistant prostate cancer cell line; experiment: MTT cytostatic-cytotoxic activity, PC-3; assay type: cell-based; details: PC-3, 48 h treatment
[9] = test system: UWB1.289 human ovarian cancer cell line (mutant BRCA1); experiment: MTT cytostatic-cytotoxic activity, UWB1.289; assay type: cell-based; details: UWB1.289, 48 h treatment
Method: Also, UWB1.289 cells have mutated the p53 tumor suppressor gene and positive Wilms' tumor protein (WT) expression, have no functional BRCA1 gene and are positive for the expression of cytokeratin 7 (CK-7), calretinin and Wilms' tumor protein (WT). Finally they are sensitive to ionizing radiation.
as §1, §2, §3, §4, §5

in vivo = details: both sexes, mouse, in vivo, ip; C57BI/6 mice, acute toxicity
Method: The acute toxicity of the compounds was assessed from lethality by testing different concentrations, starting at 100mg/kg. […] For intraperitoneal (i.p.) treatment, stock solutions of the tested compounds were prepared immediately before use. They were suspended in corn oil in the desired concentration following initial dissolution in 10% dimethylsulfoxide (DMSO). C57BI/6 male and female were used for toxicity studies. Mice were kept under conditions of constant temperature and humidity in sterile cages with water and food.

[10] = test system: all 9 human cancer cell lines; experiment: MTT cytostatic-cytotoxic activity, all 9 human cancer cell lines; assay type: cell-based; details: for IC50: Homo sapiens, read-out: (cytotoxic); for GI50: in all 9 human cancer cell lines, read-out: IG50 (cytostatic)

For COc1cc(Cc2nnc3sc(/C=C/c4cccc(F)c4)nn23)c(S(=O)(=O)N(C)C)cc1OC [TS29, 3-[2-(N,N-dimethylsulfamoyl)-4,5dimethoxybenzyl]-6-(E)-3-fluorostyryl-1,2,4-triazolo[3,4-b]-1,3,4-thiazole], which GI50 [1] is on record?
Its GI50 is 30 µM.

What about the TGI [1] of the same compound?
Its TGI is 71 µM.

What about the IC50 ([1]; kills 50% of the cells) of the same compound?
The IC50 was greater than 100 µM.

What about the GI50 [2] of the same compound?
Its GI50 is 66 µM.

And the TGI [2]?
The TGI was greater than 100 µM.

What about the IC50 ([2]; kills 50% of the cells) of the same compound?
The IC50 was greater than 100 µM.

What about the GI50 [3] of the same compound?
The GI50 was 10 µM.

And the TGI [3]?
Its TGI is 64 µM.

And the IC50 ([3]; kills 50% of the cells)?
The IC50 was greater than 100 µM.

And the GI50 [4]?
The GI50 was 61 µM.

What about the TGI [4] of the same compound?
The TGI was greater than 100 µM.

What about the IC50 ([4]; kills 50% of the cells) of the same compound?
Its IC50 is greater than 100 µM.

What about the GI50 [5] of the same compound?
Its GI50 is 48 µM.

What about the TGI [5] of the same compound?
Its TGI is 86 µM.

And the IC50 ([5]; kills 50% of the cells)?
The IC50 was greater than 100 µM.

What about the GI50 [6] of the same compound?
The GI50 was 45 µM.

What about the TGI [6] of the same compound?
Its TGI is 84 µM.

And the IC50 ([6]; kills 50% of the cells)?
The IC50 was greater than 100 µM.

What about the GI50 [7] of the same compound?
Its GI50 is 74 µM.

What about the TGI [7] of the same compound?
Its TGI is greater than 100 µM.

What about the IC50 ([7]; kills 50% of the cells) of the same compound?
Its IC50 is greater than 100 µM.

What about the GI50 [8] of the same compound?
The GI50 was 85 µM.

And the TGI [8]?
The TGI was greater than 100 µM.

What about the IC50 ([8]; kills 50% of the cells) of the same compound?
Its IC50 is greater than 100 µM.

And the GI50 [9]?
Its GI50 is 10 µM.

What about the TGI [9] of the same compound?
The TGI was 67 µM.

And the IC50 ([9]; kills 50% of the cells)?
Its IC50 is greater than 100 µM.

Which results are given for COc1ccc(Cc2nn3c(Cc4cc(OC)c(OC)cc4S(=O)(=O)N(C)C)nnc3s2)cc1OC [TS51, 3-[2-(N,N-dimethylsulfamoyl)-4,5-dimethoxybenzyl]-6-(3,4-dimethoxybenzyl)-1,2,4-triazolo[3,4-b]-1,3,4-thiazole]?
LD50 (in vivo): > 500 mg/kg; IC50 [10]: > 100 µM; GI50 [10]: < 100 µM

With COc1cc(Cc2nnc3sc(CCCc4ccccc4)nn23)c(S(=O)(=O)N(C)C)cc1OC [TS52, 3-[2-(N,N-dimethylsulfamoyl)-4,5-dimethoxybenzyl]-6-(3-phenylpropyl)-1,2,4-triazolo[3,4-b]-1,3,4-thiazole] as the compound, how does the LD50 (in vivo) read?
Its LD50 is greater than 500 mg/kg.

What about the IC50 [10] of the same compound?
The IC50 was greater than 100 µM.

And the GI50 [10]?
Its GI50 is less than 100 µM.

Which LD50 (in vivo) does the source give for COc1ccccc1CCc1nn2c(Cc3cc(OC)c(OC)cc3S(=O)(=O)N(C)C)nnc2s1 [TS54, 3-[2-(N,N-dimethylsulfamoyl)-4,5-dimethoxybenzyl]-6-[2-(2-methoxyphenyl)ethyl]-1,2,4-triazolo[3,4-b]-1,3,4-thiazole] here?
Its LD50 is greater than 500 mg/kg.

What about the IC50 [10] of the same compound?
Its IC50 is greater than 100 µM.

What about the GI50 [10] of the same compound?
Its GI50 is less than 100 µM.

For COc1ccc(CCc2nn3c(Cc4cc(OC)c(OC)cc4S(=O)(=O)N(C)C)nnc3s2)cc1 [TS55, 3-[2-(N,N-dimethylsulfamoyl)-4,5-dimethoxybenzyl]-6-[2-(4-methoxyphenyl)ethyl]-1,2,4-triazolo[3,4-b]-1,3,4-thiazole], which LD50 (in vivo) is on record?
The LD50 was greater than 500 mg/kg.

What about the IC50 [10] of the same compound?
Its IC50 is greater than 100 µM.

What about the GI50 [10] of the same compound?
Its GI50 is less than 100 µM.

What does the source list for COc1cc(Cc2nnc3sc(COc4ccccc4)nn23)c(S(=O)(=O)N(C)C)cc1OC [TS56, 3-[2-(N,N-dimethylsulfamoyl)-4,5-dimethoxybenzyl]-6-phenoxymethyl-1,2,4-triazolo[3,4-b]-1,3,4-thiazole]?
LD50 (in vivo): > 500 mg/kg; IC50 [10]: > 100 µM; GI50 [10]: < 100 µM

Which LD50 (in vivo) does the source give for COc1cccc(Cc2nn3c(Cc4cc(OC)c(OC)cc4S(=O)(=O)N(C)C)nnc3s2)c1 [TS58, 3-[2-(N,N-dimethylsulfamoyl)-4,5-dimethoxybenzyl]-6-(3-methoxybenzyl)-1,2,4-triazolo[3,4-b]-1,3,4-thiazole] here?
Its LD50 is greater than 500 mg/kg.

What about the IC50 [10] of the same compound?
The IC50 was greater than 100 µM.

And the GI50 [10]?
Its GI50 is less than 100 µM.

What does the source list for COc1cc(Cc2nnc3sc(-c4cc(OC)c(OC)c(OC)c4)nn23)c(S(=O)(=O)N(C)C)cc1OC [TS59, 3-[2-(N,N-dimethylsulfamoyl)-4,5-dimethoxybenzyl]-6-(3,4,5-trimethoxyphenyl)-1,2,4-triazolo[3,4-b]-1,3,4-thiazole]?
LD50 (in vivo): > 500 mg/kg; IC50 [10]: > 100 µM; GI50 [10]: < 100 µM

With COc1cc(Cc2nnc3sc(-c4ccc([N+](=O)[O-])cc4Cl)nn23)c(S(=O)(=O)N(C)C)cc1OC [TS61, 3-[2-(N,N-dimethylsulfamoyl)-4,5-dimethoxybenzyl]-6-(2-chloro-4-nitrophenyl)-1,2,4-triazolo[3,4-b]-1,3,4-thiazole] as the compound, how does the LD50 (in vivo) read?
The LD50 was greater than 500 mg/kg.

And the IC50 [10]?
The IC50 was greater than 100 µM.

And the GI50 [10]?
The GI50 was less than 100 µM.

What does the source list for COc1cc(Cc2nnc3sc(-c4cccc(N)c4)nn23)c(S(=O)(=O)N(C)C)cc1OC [TS70, 3-[2-(N,N-dimethylsulfamoyl)-4,5-dimethoxybenzyl]-6-(3-aminophenyl)-1,2,4-triazolo[3,4-b]-1,3,4-thiazole]?
LD50 (in vivo): > 500 mg/kg; IC50 [10]: > 100 µM; GI50 [10]: < 100 µM
